Laboratory results taken from patent US20050019847A1, “ISG15-conjugated proteins” (priority 2003, published 2005).
Peptide text beside a SMILES is read from it. * marks the point of attachment. Cbz = O=C(OCc1ccccc1)*

Columns and labels:
ISG15-conjugates = experiment: Western blot of ISG15-conjugates in MEFs treated with proteasome inhibitor; format: cell-based, murine
Description: (§1) (A) UBP43^+/+ and UBP43^−/− MEFs were incubated with or without IFNβ for 18 hours and were treated with lactacystin at a final concentration of 5 μM for 3 hours. An equal volume of DMSO (vehicle) was added to control samples. Cell lysates (10 μg total protein) were resolved on 8-18% minigel and western blot was performed with rabbit anti-mouse ISG15. The membrane was stripped and reprobed with anti-Ub serum. (B) UBP43^+/+ (not treated with IFN) and UBP43^−/− (incubated with IFNβ for 18 hours) MEFs were treated with MG132 at a final concentration of 10 μM for 3 hours. An equal volume of DMSO (vehicle) was added to control samples. PLCγ1 was immunoprecipitated and immunocomplexes were resolved on 7% minigel. The membrane was probed with anti-ISG15 and, after stripping, was reprobed with anti-PLCγ1. Positions of unmodified PLCγ1 are shown with arrows and positions of conjugates are shown with asterisks. Cell lysates (10 μg total protein) were also resolved on an identical minigel to assess amount of ISG15- and Ub-conjugates. Western blot was performed with rabbit anti-mouse ISG15 and after stripping the membrane was reprobed with anti-Ub serum.
(§2) Wild type and UBP43^−/− murine embryonic fibroblasts (MEFs) were generated from a litter of embryos on embryonic day 12.5. Briefly, embryonic torsos were minced and trypsinized for 30 min at 37° C. […]

ubiquitinated proteins = experiment: Western blot of ubiquitinated proteins in MEFs treated with proteasome inhibitor; format: cell-based, murine; conditions: UBP43−/− and UBP43+/+ MEFs, uninduced or IFNβ induced; lactacystin 5 μM for 3 hours
Description: as §1, §2

Compound	level of ISG15-conjugation (ISG15-conjugates; UBP43+/+ (no IFN) and UBP43−/− (IFNβ 18 hours) MEFs, MG132 10 μM for 3 hours)	amount of ubiquitinated proteins (ubiquitinated proteins)	amount of ISG15-conjugates, treated vs untreated samples (ISG15-conjugates; UBP43−/− and UBP43+/+ MEFs, uninduced or IFNβ induced, lactacystin 5 μM for 3 hours)
CC(C)C[C@@H](C=O)NC(=O)[C@H](CC(C)C)NC(=O)[C@H](CC(C)C)NC(=O)OCc1ccccc1 [MG132] (Cbz-Leu-Leu-Leu-aldehyde)	do not affect	–	–
CC(=O)N[C@@H](CSC(=O)[C@]1([C@@H](O)C(C)C)NC(=O)[C@H](C)[C@@H]1O)C(=O)O [lactacystin]	–	increase	no difference
